Source: patent publication USRE39591E1, “6-O-substituted ketolides having antibacterial activity” (Abbott Laboratories, priority 1996, dated 2007)
Values after ≈ are worked out from the molar mass of the structure shown.

Test system: up to 32 different microorganisms
Assay: in vitro antibacterial activity (MIC), agar dilution on Brain Heart Infusion (BHI) agar with Steers replicator
Assay type: cell-based
Conditions: unit assumed
Summary of the method: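 Erythromycin A served as the same-class reference for test-to-test comparability. Test compound was tested over twelve successive dilutions in BHI agar; plates were incubated 20 to 24 hours at 35°-37° C, with MIC taken as the lowest concentration showing no growth, slight haze, or sparse colonies.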

[1] = Candida albicans CCH 442 (code TT)
[2] = Enterococcus faecism ATCC 8043 (code II)
[3] = Escherichia coli DC-2 (code SS)
[4] = Escherichia coli JUHL (code QQ)
[5] = Micrococcus luteus ATCC 4698 (code PP)
[6] = Micrococcus luteus ATCC 9341 (code OO)
[7] = Mycobacterium smegmatis ATCC 114 (code UU)
[8] = Nocardia Asteroides ATCC9970 (code VV)
[9] = Staphylococcus aureus 1775 (code GG)
[10] = Staphylococcus aureus A5177 (code BB)
[11] = Staphylococcus aureus A-5278 (code CC)
[12] = Staphylococcus aureus ATCC 6538P (code AA)
[13] = Staphylococcus aureus CMX 553 (code FF)
[14] = Staphylococcus aureus CMX 642A (code DD)
[15] = Staphylococcus aureus NCTC10649M (code EE)
[16] = Staphylococcus epidermidis 3519 (code HH)
[17] = Streptococcus agalactiae CMX 508 (code KK)
[18] = Streptococcus bovis A-5169 (code JJ)
[19] = Streptococcus pyogenes 930 (code MM)
[20] = Streptococcus pyogenes EES61 (code LL)
[21] = Streptococcus pyogenes PIU 2548 (code NN)

With `CCC1OC(=O)C(C)C(=O)C(C)C(OC2OC(C)CC(N(C)C)C2O)C(C)(OCC=Cc2cnc3ccc(C(N)=O)cc3c2)CC(C)C(=O)C(C)C2NC(=O)OC12C` (stereo not shown) [Example 217, R is —CH2CH═CH-(6-aminocarbonyl-3-quinolyl)] the MIC (organism code AA) was 0.2 µg/mL (≈ 0.247 µM), the MIC (organism code BB) was 0.39 µg/mL (≈ 0.482 µM) and the MIC (organism code CC) was > 100 µg/mL. For the same compound, the MIC (organism code DD) was 0.39 µg/mL (≈ 0.482 µM), the MIC (organism code FF) was 0.2 µg/mL (≈ 0.247 µM) and the MIC (organism code GG) was > 100 µg/mL. The MIC (organism code HH) was 0.39 µg/mL (≈ 0.482 µM), the MIC (organism code II) was 0.2 µg/mL (≈ 0.247 µM) and the MIC (organism code JJ) was 0.02 µg/mL (≈ 0.0247 µM). The MIC (organism code KK) was 0.02 µg/mL (≈ 0.0247 µM), the MIC (organism code LL) was 0.02 µg/mL (≈ 0.0247 µM) and the MIC (organism code MM) was 0.78 µg/mL (≈ 0.964 µM). For the same compound, the MIC (organism code NN) was 0.78 µg/mL (≈ 0.964 µM), the MIC (organism code OO) was 0.1 µg/mL (≈ 0.124 µM) and the MIC (organism code PP) was 0.39 µg/mL (≈ 0.482 µM). For the same compound, the MIC (organism code QQ) was 50 µg/mL (≈ 61.8 µM), the MIC (organism code RR) was 0.39 µg/mL (≈ 0.482 µM) and the MIC (organism code SS) was > 100 µg/mL. For the same compound, the MIC (organism code TT) was > 100 µg/mL, the MIC (organism code UU) was 12.5 µg/mL (≈ 15.5 µM) and the MIC (organism code VV) was 0.78 µg/mL (≈ 0.964 µM). For the same compound, the MIC (organism code WW) was 2 µg/mL (≈ 2.47 µM), the MIC (organism code XX) was 0.03 µg/mL (≈ 0.0371 µM) and the MIC (organism code YY) was 0.03 µg/mL (≈ 0.0371 µM). The MIC (organism code ZZ) was 2 µg/mL (≈ 2.47 µM) and the MIC (organism code ZZA) was 2 µg/mL (≈ 2.47 µM).

`CCC1OC(=O)C(C)C(=O)C(C)C(OC2OC(C)CC(N(C)C)C2O)C(C)(OCC=Cc2ccc3nc(C)ccc3c2)CC(C)C(=O)C(C)C2NC(=O)OC12C` (stereo not shown) [Example 197, R is —CH2CH═CH-(2-methyl-6-quinolyl)] was tested, and the MIC [1] was > 100 µg/mL, the MIC [2] was 0.05 µg/mL (≈ 0.0641 µM) and the MIC [3] was 100 µg/mL (≈ 128 µM). The MIC [4] was 100 µg/mL (≈ 128 µM), the MIC (Escherichia coli SS (code RR)) was 0.2 µg/mL (≈ 0.256 µM) and the MIC [5] was 0.2 µg/mL (≈ 0.256 µM). The MIC [6] was 0.02 µg/mL (≈ 0.0256 µM), the MIC [7] was 1.56 µg/mL (≈ 2 µM) and the MIC [8] was 0.1 µg/mL (≈ 0.128 µM). For the same compound, the MIC [9] was > 100 µg/mL, the MIC [10] was 0.1 µg/mL (≈ 0.128 µM) and the MIC [11] was > 100 µg/mL. It also gave an MIC [12] of 0.1 µg/mL (≈ 0.128 µM), an MIC [13] of 0.2 µg/mL (≈ 0.256 µM) and an MIC [14] of 0.1 µg/mL (≈ 0.128 µM). The MIC [15] was 0.2 µg/mL (≈ 0.256 µM), the MIC [16] was 0.1 µg/mL (≈ 0.128 µM) and the MIC [17] was ≤ 0.005 µg/mL. For the same compound, the MIC [18] was ≤ 0.005 µg/mL, the MIC [19] was 100 µg/mL (≈ 128 µM) and the MIC [20] was ≤ 0.005 µg/mL. For the same compound, the MIC [21] was 0.1 µg/mL (≈ 0.128 µM).

With `CCC1OC(=O)C(C)C(=O)C(C)C(OC2OC(C)CC(N(C)C)C2O)C(C)(OCC=Cc2cccc3cccnc23)CC(C)C(=O)C(C)C2NC(=O)OC12C` (stereo not shown) [Example 189, R is —CH2CH-(8-quinolyl)] the MIC [1] was > 100 µg/mL, the MIC [2] was 0.05 µg/mL (≈ 0.0653 µM) and the MIC [3] was 50 µg/mL (≈ 65.3 µM). For the same compound, the MIC [4] was 100 µg/mL (≈ 131 µM), the MIC (Escherichia coli SS (code RR)) was 0.39 µg/mL (≈ 0.509 µM) and the MIC (Haemophilis influenzae DILL AMP R (code WW)) was 8 µg/mL (≈ 10.4 µM). The MIC [5] was 0.1 µg/mL (≈ 0.131 µM), the MIC [6] was 0.02 µg/mL (≈ 0.0261 µM) and the MIC [7] was 0.78 µg/mL (≈ 1.02 µM). The MIC [8] was 0.05 µg/mL (≈ 0.0653 µM), the MIC [9] was > 100 µg/mL and the MIC [10] was 0.1 µg/mL (≈ 0.131 µM). The MIC [11] was > 100 µg/mL, the MIC [12] was 0.2 µg/mL (≈ 0.261 µM) and the MIC [13] was 0.1 µg/mL (≈ 0.131 µM). It also gave an MIC [14] of 0.2 µg/mL (≈ 0.261 µM), an MIC [15] of 0.1 µg/mL (≈ 0.131 µM) and an MIC [16] of 0.2 µg/mL (≈ 0.261 µM). The MIC (Streptococcus Pneumonia 5649 (code ZZA)) was 0.5 µg/mL (≈ 0.653 µM), the MIC (Streptococcus Pneumonia 5979 (code ZZ)) was > 32 µg/mL and the MIC (Streptococcus Pneumonia ATCC6303 (code XX)) was 0.125 µg/mL (≈ 0.163 µM). The MIC (Streptococcus Pneumonia GYR 1171 (code YY)) was 0.06 µg/mL (≈ 0.0783 µM), the MIC [17] was ≤ 0.005 µg/mL and the MIC [18] was ≤ 0.005 µg/mL. The MIC [19] was 50 µg/mL (≈ 65.3 µM), the MIC [20] was ≤ 0.005 µg/mL and the MIC [21] was 0.2 µg/mL (≈ 0.261 µM).

`CCCO[C@@]1(C)C[C@@H](C)C(=O)[C@H](C)[C@@H](O)[C@](C)(O)[C@@H](CC)OC(=O)[C@H](C)C(=O)[C@H](C)[C@H]1O[C@@H]1O[C@H](C)C[C@H](N(C)C)[C@H]1O` [Example 3, Compound of Formula (VIII): X is O, R is propyl] was tested, and the MIC [1] was > 100 µg/mL, the MIC [2] was 25 µg/mL and the MIC [3] was > 100 µg/mL. For the same compound, the MIC [4] was > 100 µg/mL, the MIC (Escherichia coli SS (code RR)) was 50 µg/mL and the MIC [5] was 100 µg/mL. The MIC [6] was 12.5 µg/mL, the MIC [7] was > 100 µg/mL and the MIC [8] was 12.5 µg/mL. The MIC [9] was > 100 µg/mL, the MIC [10] was > 100 µg/mL and the MIC [11] was > 100 µg/mL. For the same compound, the MIC [12] was 25 µg/mL, the MIC [13] was 25 µg/mL and the MIC [14] was 100 µg/mL. The MIC [15] was 25 µg/mL, the MIC [16] was 50 µg/mL and the MIC [17] was 25 µg/mL. The MIC [18] was 25 µg/mL, the MIC [19] was > 100 µg/mL and the MIC [20] was 100 µg/mL. For the same compound, the MIC [21] was 100 µg/mL.
